# According to US5250679A, “Nonpeptidyl platelet aggregation inhibitors having specificity for the GPIIb III receptor” (Genentech, Inc., priority 1992, dated 1993):
# Counter-ions that a name gives are not always drawn. Like-named read-outs stand apart in the source and are kept apart here.
# Target: T1, GP IIb IIIa (Homo sapiens, UniProt P05106+P08514)
# T1 construct: from tissue; host or cells: outdated human platelets
# Assay: Fibrinogen-GP IIb IIIa Receptor ELISA Binding Assay (Fg/IIbIIIa)
# Procedure: Briefly, microtiter plates are coated with fibrinogen (10 mg/ml) and then blocked with TACTS buffer containing 0.5% bovine serum albumin (BSA). […] After another wash a goat anti-mouse IgG conjugated to horseradish peroxidase is added. […] The reaction is stopped with 1N sulfuric acid and the absorbance at 492 nm is recorded. […] Outdated human platelets are washed 3 times with 10 mM tris-HCl, 150 mM NaCl (TBS), 1 mM EDTA, pH 7.5, and centrifuged at 2000×g to pellet cells. […] The supernatant fraction is collected and the supernatant is loaded onto a concanavalin-A column, previously equilibrated in TBS, 1 mM Ca2 Cl2, 0.1% Triton, 0.05% NaN3 and eluted with 0.2M a-methylmannoside. Fractions are pooled and loaded onto a heparin-agarose column. The flowthrough is collected and concentrated on an Amicon YM 30 filter to a volume of approximately 5-10 ml. The concentrate is then applied to an S-300 column (500 ml) and 6 ml fractions are collected. The GP IIb IIIa containing fractions are collected, pooled, and stored at -80° C. […] The precipitate is spun down in appropriate size bottles at 2000×g. The supernatant is decanted and the precipitate resuspended in 150 mM NaCl (approximately 50% of the original volume). […] The suspension is spun down and the precipitate is resuspended in Tris-saline in a minimal volume (approximately 5% of the original volume). Any remaining insoluble material is spun down at 2000 rpm in a Sorval type centrifuge and the fibrinogen supernatant is decanted and dialyzed overnight at 4° C. against Tris-saline. Characterization of the fibrinogen is by the Bradford protein assay, SDS-PAGE, and/or Western blotting using well known standard procedures. Briefly, 96 well plates are coated (Type Nunc 1 MaxisorpTM) with 10 mg/ml purified fibrinogen ([…]), and allowed to stand overnight at 4° C. […] The plates are again washed three times with PBS/Tween and then […] of sample in TNCNT is added. The mixture is incubated for 15 minutes at room temperature on a plate shaker. […] Fifty ml of this diluted GP IIb IIIa is then added to each well and incubated on a plate shaker at room temperature. After one hour, the plates are washed four times with PBS/Tween and 100 ml of a polyclonal or monoclonal antibody specific for GP IIIa such as AP3 (1 mg/ml) (See e.g. […] After a one hour incubation at room temperature on a plate shaker, the samples are washed 4 times with PBS/Tween. […] The color develops within about 3 to 20 minutes and the reaction is stopped with 100 ml 1M H2 SO4. The optical density at 492 nm vs 405 nm is recorded and IC50 values are determined.
# [1] = Examples 29 and 30, Cmpd # tables, read-out: IC50 (μM) Fg/IIbIIIa
# [2] = Example 29, Cmpd # 1-105, read-out: IC50 Fg/IIbI
# T1 sequence (P08514 32-887 limits assumed): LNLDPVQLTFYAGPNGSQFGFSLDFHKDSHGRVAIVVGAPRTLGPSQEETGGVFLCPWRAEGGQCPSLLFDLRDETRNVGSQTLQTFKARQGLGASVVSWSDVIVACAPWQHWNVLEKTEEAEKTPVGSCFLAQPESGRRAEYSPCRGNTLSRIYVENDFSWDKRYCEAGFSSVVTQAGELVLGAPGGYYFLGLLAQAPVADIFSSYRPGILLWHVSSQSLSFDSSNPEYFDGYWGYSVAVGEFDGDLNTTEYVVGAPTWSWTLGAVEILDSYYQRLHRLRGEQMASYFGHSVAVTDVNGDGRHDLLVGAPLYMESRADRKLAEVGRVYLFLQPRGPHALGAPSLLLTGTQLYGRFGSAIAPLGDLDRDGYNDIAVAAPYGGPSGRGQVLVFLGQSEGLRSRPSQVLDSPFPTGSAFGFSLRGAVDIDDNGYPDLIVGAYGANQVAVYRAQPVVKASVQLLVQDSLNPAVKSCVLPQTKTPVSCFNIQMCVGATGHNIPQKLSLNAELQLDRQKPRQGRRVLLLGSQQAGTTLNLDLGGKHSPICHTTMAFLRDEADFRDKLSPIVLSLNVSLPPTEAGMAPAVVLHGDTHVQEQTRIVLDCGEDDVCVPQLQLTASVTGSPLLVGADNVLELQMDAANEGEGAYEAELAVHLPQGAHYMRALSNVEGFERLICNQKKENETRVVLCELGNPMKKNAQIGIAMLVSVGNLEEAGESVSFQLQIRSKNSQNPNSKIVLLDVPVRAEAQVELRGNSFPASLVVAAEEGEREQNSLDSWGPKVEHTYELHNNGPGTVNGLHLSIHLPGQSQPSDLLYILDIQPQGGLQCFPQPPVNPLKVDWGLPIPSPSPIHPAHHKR
# T1 sequence (P08514 891-1039 partner limits assumed): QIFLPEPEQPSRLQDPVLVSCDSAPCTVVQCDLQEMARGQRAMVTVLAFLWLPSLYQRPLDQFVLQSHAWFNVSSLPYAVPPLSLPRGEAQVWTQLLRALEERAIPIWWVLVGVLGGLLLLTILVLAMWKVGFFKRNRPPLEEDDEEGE
# T1 sequence (P05106 27-788): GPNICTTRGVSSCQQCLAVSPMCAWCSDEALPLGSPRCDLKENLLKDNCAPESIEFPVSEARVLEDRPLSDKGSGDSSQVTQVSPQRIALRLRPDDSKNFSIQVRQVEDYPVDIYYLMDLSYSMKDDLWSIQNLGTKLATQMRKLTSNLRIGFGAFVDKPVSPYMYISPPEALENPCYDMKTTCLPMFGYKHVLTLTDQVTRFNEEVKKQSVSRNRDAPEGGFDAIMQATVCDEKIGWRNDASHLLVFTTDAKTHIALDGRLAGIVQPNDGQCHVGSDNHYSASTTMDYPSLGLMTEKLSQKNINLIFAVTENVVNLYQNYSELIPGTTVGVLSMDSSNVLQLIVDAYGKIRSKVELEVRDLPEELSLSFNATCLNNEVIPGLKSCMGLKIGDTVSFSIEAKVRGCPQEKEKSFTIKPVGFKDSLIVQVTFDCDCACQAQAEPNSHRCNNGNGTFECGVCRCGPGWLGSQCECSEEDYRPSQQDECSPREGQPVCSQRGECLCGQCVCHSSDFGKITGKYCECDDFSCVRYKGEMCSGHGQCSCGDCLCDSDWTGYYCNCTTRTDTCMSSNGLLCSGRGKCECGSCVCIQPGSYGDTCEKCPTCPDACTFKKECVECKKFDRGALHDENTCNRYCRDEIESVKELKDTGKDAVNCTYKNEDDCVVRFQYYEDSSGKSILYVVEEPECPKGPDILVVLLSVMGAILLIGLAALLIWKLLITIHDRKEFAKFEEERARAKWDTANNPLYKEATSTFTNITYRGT
IC50 [1] [µM],IC50 [2] [µM],SMILES
0.014,,N=C(N)NCCCCCc1ccc2c(c1)C(=O)N(CCC(=O)O)CC(=O)N2CCCCC(=O)O [Cmpd 131]
,0.176,NCCCCCc1ccc2c(c1)C(=O)N(CCC(=O)O)CC(=O)N2Cc1ccc(Cl)cc1 [Cmpd 62]
,0.055,"N=C(N)NCCCCCCc1ccc2c(c1)C(=O)N(CCC(=O)O)CC(=O)N2Cc1ccc2ccccc2c1 [Cmpd 86, 1-(2-napthyl)methyl-4-(2-carboxyethyl)-7-(6-guanidinohexyl)-3,4-dihydro-1H-1,4-benzodiazepine-2,5-dione trifluoroacetate]"
,0.005,"NCCCCCCc1ccc2c(c1)C(=O)N(CCC(=O)O)CC(=O)N2Cc1ccc(C(F)(F)F)cc1 [Cmpd 90, 1-(p-trifluoromethylbenzyl)-4-(2-carboxyethyl)-7-(6-aminohexyl)-3,4-dihydro-1H-1,4-benzodiazepine-2,5-dione trifluoroacetate]"
,> 100,CC1C(=O)N(C)c2ccc(CCCCN)cc2C(=O)N1CCC(=O)O (centres unmarked) [Cmpd 23]
,2.92,NCCCCCc1ccc2c(c1)C(=O)N(CCC(=O)O)CC(=O)N2 [Cmpd 29]
,0.031,NCCCCC#Cc1ccc2c(c1)C(=O)N(CCC(=O)O)CC(=O)N2Cc1ccc([N+](=O)[O-])cc1 [Cmpd 87]
,0.014,"N=C(N)NCCCCCc1ccc2c(c1)C(=O)N(CCC(=O)O)CC(=O)N2Cc1ccc(C(F)(F)F)cc1 [Cmpd 93, 1-(p-trifluoromethylbenzyl)-4-(2-carboxyethyl)-7-(5-guanidinopentyl)-3,4-dihydro-1H-1,4-benzodiazepine-2,5-dione trifluoroacetate]"
,0.16,"COc1ccc(CN2C(=O)CN(CCC(=O)O)C(=O)c3cc(CCCCCN)ccc32)cc1 [Cmpd 80, 1-(p-methoxybenzyl)-4-(2-carboxyethyl)-7-(5-aminopentyl)-3,4-dihydro-1H-1,4-benzodiazepine-2,5-dione trifluoroacetate]"
0.931,,NCCCCCc1ccc2c(c1)C(=O)N(CCC(=O)O)CC(=O)N2CCCCC(=O)O [Cmpd 132]
0.024,,NCCCCCCc1ccc2c(c1)C(=O)N(CCC(=O)O)CC(=O)N2Cc1cccc(CCCCN)c1 [Cmpd 120]
,0.2,N=C(N)NCCCCCCCc1ccc2c(c1)C(=O)N(CCC(=O)O)CC(=O)N2Cc1ccc(Cl)cc1 [Cmpd 67]
,0.466,CN1C(=O)CN(CCC(=O)O)C(=O)c2cc(CCCNC(=N)N)ccc21 [Cmpd 4]
0.064,,NCCCCCCc1ccc2c(c1)C(=O)N(CCC(=O)O)CC(=O)N2CCCCCN [Cmpd 125]
,0.12,CN1C(=O)CN(CCC(=O)O)C(=O)c2cc(CCCCCCNC(=N)N)ccc21 [Cmpd 40]
,0.038,N=C(N)NCCCCCCc1ccc2c(c1)C(=O)N(CCC(=O)O)CC(=O)N2Cc1ccc(F)cc1F [Cmpd 104]
,0.011,"COc1ccc(CN2C(=O)CN(CCC(=O)O)C(=O)c3cc(CCCCCNC(=N)N)ccc32)cc1 [Cmpd 79, 1-(p-methoxybenzyl)-4-(2-carboxyethyl)-7-(5-guanidinopentyl)-3,4-dihydro-1H-1,4-benzodiazepine-2,5-dione trifluoroacetate]"
0.04,,N=C(N)NCCCCCCc1ccc2c(c1)C(=O)N(CCC(=O)O)CC(=O)N2CCCCCNC(=N)N [Cmpd 126]
,30,CC1C(=O)N(C)c2ccc(CCCN)cc2C(=O)N1CCC(=O)O (centres unmarked) [Cmpd 7]

# Further lines, the molecule ahead of its results:
SMILES,IC50 [1] [µM],IC50 [2] [µM]
CN1C(=O)C2CCC(CC(=O)O)N2C(=O)c2cc(CCCN)ccc21 (centres unmarked) [Cmpd 17],,> 100
"CN1C(=O)CN(CCC(=O)O)C(=O)c2cc3c(cc21)CCC(CCCN)C3 (centres unmarked) [Cmpd 141, 1-Methyl-4-(carboxyethyl)-8-(3-amino-1-propyl)-3,4,7,8,9,10-hexahydrohydro-1H-1,4-naphthodiazepine-2,5-dione]",1.8,
"CN1C(=O)CN(CCC(=O)O)C(=O)c2cc3cc(C#CCNC(=N)N)ccc3cc21 [Cmpd 138, 1-Methyl-4-(carboxyethyl)-8-(3-guanidino-1-propynyl)-3,4-dihydro-1H-1,4-naphthodiazepine-2,5-dione]",0.009,
CN1C(=O)CN(CCC(=O)O)C(=O)c2cc(C#CCCN)ccc21 [Cmpd 21],,6
CN1C(=O)CN(C(CC(=O)O)c2ccccc2)C(=O)c2cc(C#CCCCCNC(=N)N)ccc21 (centres unmarked) [Cmpd 54],,0.1
"NCCCCCCCCOc1ccc2c(c1)C(=O)N(CCC(=O)O)CCC2 [Cmpd 151, 2-(2-carboxyethyl)-8-(8-aminooctyloxy)-2,3,4,5-tetrahydro-1H-2-benzazepin-1-one trifluoroacetate]",> 100,
CN1C(=O)CN(CCC(=O)O)C(=O)c2cc(C#CCN)ccc21 [Cmpd 5],,7
NCCCC#Cc1ccc2c(c1)C(=O)N(CCC(=O)O)CCO2 [Cmpd 144],12,
"CN1C(=O)CN(CCC(=O)O)C(=O)c2cc3cc(C#CCN)ccc3cc21 [Cmpd 137, 1-methyl-4-(2-carboxyethyl)-8-(3-amino-1-propynyl)-3,4-dihydro 1H-1,4-napthodiazepine-2,4-dione trifluoracetate]",0.351,
N=C(N)NCCCCC#Cc1ccc2c(c1)C(=O)N(CCC(=O)O)CC(=O)N2Cc1ccc(Cl)cc1 [Cmpd 61],,0.043
CN1C(=O)CN(C(CC(=O)O)c2ccccc2)C(=O)c2cc(CCCCCCN)ccc21 (centres unmarked) [Cmpd 51],,0.2
NCCCC#Cc1ccc2c(c1)C(=O)N(CCC(=O)O)CC(=O)N2 [Cmpd 31],,1.43
N=C(N)NCCC#Cc1cccc(C(=O)NCCC(=O)O)c1 [Cmpd 160],1.01,
N=C(N)NCCCc1cccc(C(=O)NCCC(=O)O)c1 [Cmpd 158],2.3,
CC1C(=O)N(C)c2ccc(CCCNC(=N)N)cc2C(=O)N1CCC(=O)O (centres unmarked) [Cmpd 8],,> 100
CN1C(=O)CN(CCC(=O)O)C(=O)c2cc(C#Cc3ccc(C#N)cc3)ccc21 [Cmpd 57],,30
CC1C(=O)N(C)c2ccc(C#CCNC(=N)N)cc2C(=O)N1CCC(=O)O (centres unmarked) [Cmpd 10],,30

SMILES,IC50 [1] [µM],IC50 [2] [µM]
NCCCCC#Cc1cccc(C(=O)NCCC(=O)O)c1 [Cmpd 163],2.7,
N=C(N)NCCCC#Cc1ccc2c(c1)C(=O)N(CCC(=O)O)CC(=O)N2Cc1ccc(Cl)cc1 [Cmpd 59],,0.009
CC1C(=O)N(C)c2ccc(C#CCCNC(=N)N)cc2C(=O)N1CCC(=O)O (centres unmarked) [Cmpd 26],,80
CN1C(=O)CN(CCC(=O)O)C(=O)c2cc(C#Cc3cccc(N)c3)ccc21 [Cmpd 49],,6
N=C(N)NCCCCCc1ccc2c(c1)C(=O)N(CCC(=O)O)CCC2 [Cmpd 156],~100,
CC1C(=O)N(C)c2ccc(C#CCN)cc2C(=O)N1CCC(=O)O (centres unmarked) [Cmpd 9],,70
N=C(N)NCCCC#Cc1cccc(C(=O)NCCC(=O)O)c1 [Cmpd 162],1,
N=C(N)NCCCC#Cc1ccc2c(c1)C(=O)N(CCC(=O)O)CC(=O)N2 [Cmpd 32],,0.254
"N=C(N)NCCCCCCc1ccc2c(c1)C(=O)N(CCC(=O)O)CC(=O)N2Cc1cccc(Oc2ccccc2)c1 [Cmpd 91, 1-(m-phenoxybenzyl)-4-(2-carboxyethyl)-7-(6-guanidinohexyl)-3,4-dihydro-1H-1,4-benzodiazepine-2,5-dione trifluoroacetate]",,0.009
NCCCC#Cc1ccc2c(c1)C(=O)N(CCC(=O)O)CC(=O)N2Cc1cccc(NC(=O)CN)c1 [Cmpd 106],0.068,
"N=C(N)c1ccc(COc2ccc3c(c2)C(=O)N(CCC(=O)O)CCC3)cc1 [Cmpd 157, 2-(2-carboxyethyl)-8-(4-amidinobenzyloxy)-2,3,4,5-tetrahydro-1H-2-benzazepin-1-one trifluoroacetate]",0.137,
CN1C(=O)CN(CCC(=O)O)C(=O)c2cc3c(cc21)CCC(CCCNC(=N)N)C3 (centres unmarked) [Cmpd 142],0.068,
"NCCOc1ccc(-c2ccc3c(c2)C(=O)N(CCC(=O)O)CC(Cc2ccccc2)O3)cc1 (centres unmarked) [Cmpd 150, trifluoroacetate]",0.119,
CN1C(=O)CN(C(CC(=O)O)c2ccccc2)C(=O)c2cc(C#CCCCCN)ccc21 (centres unmarked) [Cmpd 53],,0.24
CN1C(=O)C(c2ccccc2)N(CCC(=O)O)C(=O)c2cc(CCCNC(=N)N)ccc21 (centres unmarked) [Cmpd 12],,2.3
NCCCC#Cc1ccc2c(c1)C(=O)N(CCC(=O)O)CC(Cc1ccccc1)O2 (centres unmarked) [Cmpd 148],5.9,
CN1C(=O)CN(CCC(=O)O)C(=O)c2cc(CCc3cccc(N)c3)ccc21 [Cmpd 47],,10
